“And” between values parts separate entries of the source, which are not always exact repeats. Identical values can stand only once. Like-named read-outs stand apart in the source and are kept apart here.
Experiments:
[1] = Qualitative solubility in solvents; assay type: physicochemical
Protocol: The 2–5 mL reaction vials were loaded with a magnetic stirrer, 1 mmol of each reactant, acetohydrazide 2 and benzaldehydes, 4–4.5 mL of anhydrous ethanol and 2 drops of glacial acetic acid. Reaction conditions included 5 min of pre-stirring, followed by 40 min of irradiation at 100 °C, with the absorbance level set to “high”. The vials were left overnight in a refrigerator. The precipitates formed were filtered under vacuum, washed with cold ethanol and dried at room temperature. Thin-layer chromatography was performed to analyze and monitor the reaction. The compounds were confirmed by spectroscopic methods (FT-IR, ^1H-NMR and ^13C-NMR spectroscopy and mass spectrometry) and characterized by melting points, solubility and retention factors (Rf).

E. coli ATCC 25922 = assay: Microbicidal activity (MMC); assay type: cell-based; conditions: DMSO control 5
Protocol: For the evaluation of antimicrobial activity, the following reference strains were used: S. aureus ATCC 25923, E. faecalis ATCC 29212, E. coli ATCC 25922, P. aeruginosa ATCC 27853 and C. albicans ATCC 10231. To determine the MMCs, 5 μL of culture was taken from each well and distributed on solid medium. The plates were incubated for 20–24 h at 37 °C. The lowest concentration at which no microbial growth was observed was considered MMC.

P. aeruginosa ATCC 27853 = assay: Microbial adhesion, crystal violet (MICMA); assay type: cell-based; conditions: DMSO control 1.25
Method in brief: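 Reference strains tested after quantitative antimicrobial assay. Adhered biomass fixed with methanol, stained with 0.1% crystal violet, resuspended in 33% acetic acid, absorbance read at 490 nm.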

[2] = test system: A431 (human epidermoid carcinoma); assay: Cytotoxicity, MTT assay; assay type: cell-based; conditions: for Cytotoxic effect (in words): 3.125 to 50 µM; for Cytotoxic effect (in words) / Cell viability / viability at 50 µM: 24 h; for viability at 50 µM / IC50: Homo sapiens; for viability at 50 µM: A-431, 50 µM, compared to the control, read-out: Cell viability; for IC50: A-431, 24 h, tested range 3.125 to 50 µM
Protocol: (§1) For the cytotoxicity screening of the N-acyl-hydrazone derivatives, three cell lines were employed: HT-29 (human colorectal adenocarcinoma), A431 (human epidermoid carcinoma), and VERO (non-tumoral African green monkey kidney epithelial cells). All cell lines were obtained from the American Type Culture Collection (ATCC, Manassas, VA, USA), and maintained in appropriate culture media as follows: HT-29 and A431 cells were cultured in Dulbecco’s Modified Eagle Medium (DMEM), while VERO cells were cultured in Minimum Essential Medium (MEM). Both culture media were supplemented with 10% fetal bovine serum (FBS) and 1% penicillin-streptomycin mix, to formulate the complete culture medium. All cell lines were incubated at 37 °C in a humidified atmosphere containing 5% CO2. […] For the cytotoxicity screening, cells were seeded into sterile 96-well plates at an initial density of 1 × 10^4 cells/well and allowed to adhere for 24 h. Subsequently, cells were treated with increasing concentrations (3.125 to 50 µM) of compounds 1a–1f and 2 for 24 h. In parallel, 5-fluorouracil (5-FU, Sigma Aldrich, St. Louis, MO, USA) was included as a reference drug and tested over the same concentration range under identical experimental conditions. […] For the experimental control, culture medium was refreshed at the time of treatment application. […] Louis, MO, USA). Briefly, the culture media were discarded from each well and replaced with a fresh solution of MTT (1 mg/mL). Plates were incubated for 4 h at 37 °C, and the resulting formazan crystals were solubilized with isopropanol. The absorbance was measured at 550 nm using the FlexStation III multimodal reader (Molecular Devices, San Jose, CA, USA). All experiments were performed in triplicate and repeated in three independent assays. Cell viability was calculated as a percentage relative to the untreated control using the formula Cell Viability (%) = (Abs treated/Abs control) × 100. Data were processed using GraphPad Prism 6.0 and presented as mean ± standard deviation (SD). Statistical analysis was performed using one-way analysis of variance (ANOVA) followed by Dunnett’s post hoc test for comparison with the untreated control group.

[3] = test system: VERO (non-tumoral African green monkey kidney epithelial cells); assay: Cytotoxicity, MTT assay; assay type: cell-based; conditions: 24 h; for Cytotoxic effect on normal cells (in words): 3.125 to 50 µM
Protocol: as §1

[4] = test system: HT-29 (human colorectal adenocarcinoma); assay: Cytotoxicity, MTT assay; assay type: cell-based; conditions: 24 h; for Cytotoxic effect (in words): 3.125 to 50 µM; for Cell viability: at corresponding concentrations (comparison with 5-FU), concentration not named; for Reduction of cell viability: at 50 µM and 25 µM, compared to the control; for IC50: tested range 3.125 to 50 µM
Protocol: as §1

Artemia franciscana = Artemia franciscana toxicity assay (nauplii lethality); conditions: from LC50 at 48 h, standard aquatic toxicity classifications [53]
Protocol: (§2) The brine shrimp cysts (Artemia franciscana) were sourced from Great Salt Lake (USA) through Ocean Star International (Burlingame, CA, USA) via S.K. Trading (Bangkok, Thailand), which carried out the repackaging. Artificial seawater was prepared by dissolving a CoralMarine salt mixture (Grotech) in distilled water to achieve a concentration of about 30 g/L. The cysts were placed in artificial seawater at 25 °C under vigorous aeration. They were allowed to hatch 48 h before the onset of the test, the brine shrimp nauplii stage being selected for the toxicity assay.
(§3) The analyzed compounds were dissolved in 100 μL DMSO and then suspended in seawater to a final volume of 10 mL. The starting concentration was 1000 μM, followed by binary dilutions with seawater: 500 μM, 250 μM, 125 μM and 62.5 μM. A blank solution of 100 μL DMSO and seawater up to 10 mL was also prepared. 24 well-plates (6 × 4) were used and the assay was conducted in triplicate for each concentration and the blank solution. 15 ± 3 nauplii were added to each well, and the plates were placed into the dark. The viability of the nauplii was monitored at 24 and 48 h.
(§4) The LC50 was estimated by interpolation using RStudio 2025.09.2 [84, 85], the drc package. Several non-linear regression models were applied: generalized log logistic regressions (LL.2, LL2.2, LL.4, LL.5) and Weibull functions (W1.2, W1.3, W2.2, W2.3).

[5] = as above; conditions: Artemia franciscana (brine shrimp) nauplii, in vivo
Protocol: as §2, §3, §4

[6] = at lower concentrations (below 50 µM)

## COc1ccc(O)c(/C=N/NC(=O)Cn2c(C)nc3ccccc3c2=O)c1 [Compound 1e, N′-[(E)-(2-hydroxy-5-methoxyphenyl)methylidene]-2-(2-methyl-4-oxoquinazolin-3(4H)-yl)acetohydrazide]
[1]; DMF
  Solubility: soluble
[1]; DMSO
  Solubility: soluble
[1]; methanol
  Solubility: slightly soluble
[1]; water
  Solubility: insoluble
E. coli ATCC 25922
  MMC: 5 mg/mL
P. aeruginosa ATCC 27853
  MICMA: 1.25 mg/mL
[2]
  Cytotoxic effect (in words): only mild cytotoxicity
[2]; at all doses (3.125 to 50 µM)
  Cell viability: above 70%
[3]
  Cytotoxic effect on normal cells (in words): strong cytotoxic effects
[4]
  Cytotoxic effect (in words): weaker cytotoxic activity

## Cc1nc2ccccc2c(=O)n1CC(=O)NN [Compound 2, 2-(2-methyl-4-oxoquinazolin-3(4H)-yl)acetohydrazide]
[2]
  Cytotoxic effect (in words): no cytotoxic activity
[3]
  Cytotoxic effect on normal cells (in words): well tolerated
[4]
  Cytotoxic effect (in words): overall increase in cell viability at all tested concentrations
Artemia franciscana
  Toxicity class: moderate toxicity
[5]
  LC50 at 48 h: 335 µM and 77.2 µg/mL

## COc1ccc(/C=N/NC(=O)Cn2c(C)nc3ccccc3c2=O)c(O)c1 [Compound 1d, N′-[(E)-(2-hydroxy-4-methoxyphenyl)methylidene]-2-(2-methyl-4-oxoquinazolin-3(4H)-yl)acetohydrazide]
[1]; DMF
  Solubility: soluble
[1]; DMSO
  Solubility: soluble
[1]; acetone
  Solubility: soluble
[1]; methanol
  Solubility: slightly soluble
[1]; water
  Solubility: insoluble
E. coli ATCC 25922
  MMC: 5 mg/mL
P. aeruginosa ATCC 27853
  MICMA: 1.25 mg/mL
[2]; at 50 µM and 25 µM
  Cell viability: below 60%
[3]; at 50 µM, compared to the untreated control
  Effect on cell viability (in words): statistically significant decrease in viability
[3]; [6]
  Effect on cell viability (in words): statistically significant increase in cell viability
[4]
  Cell viability: below 50%
  Reduction of cell viability: approximately 50%

## COc1cccc(/C=N/NC(=O)Cn2c(C)nc3ccccc3c2=O)c1O [Compound 1c, N′-[(E)-(2-hydroxy-3-methoxyphenyl)methylidene]-2-(2-methyl-4-oxoquinazolin-3(4H)-yl)acetohydrazide]
[1]; DMF
  Solubility: soluble
[1]; DMSO
  Solubility: soluble
[1]; acetone
  Solubility: soluble
[1]; methanol
  Solubility: slightly soluble
[1]; water
  Solubility: insoluble
E. coli ATCC 25922
  MMC: 5 mg/mL
P. aeruginosa ATCC 27853
  MICMA: 1.25 mg/mL
[2]
  viability at 50 µM: ~50%
  IC50: ~50 µM
[4]
  Cytotoxic effect (in words): potent inhibitory effects at all concentrations tested
  IC50: did not produce a viability drop sufficient to determine an IC50 value

## Cc1nc2ccccc2c(=O)n1CC(=O)N/N=C/c1cc(Br)cc(Br)c1O [Compound 1b, N′-[(E)-(3,5-bromo-2-hydroxyphenyl)methylidene]-2-(2-methyl-4-oxoquinazolin-3(4H)-yl)acetohydrazide]
[1]; 2-propanol
  Solubility: slightly soluble
[1]; DMF
  Solubility: soluble
[1]; DMSO
  Solubility: soluble
[1]; acetone
  Solubility: soluble
[1]; methanol
  Solubility: slightly soluble
[1]; water
  Solubility: insoluble
P. aeruginosa ATCC 27853
  MICMA: 1.25 mg/mL
[2]
  viability at 50 µM: ~50%
  IC50: ~50 µM
[3]; [6]
  Effect on cell viability (in words): statistically significant increase in cell viability
[4]
  Cell viability: below 50%
  Reduction of cell viability: approximately 50%

## Cc1nc2ccccc2c(=O)n1CC(=O)N/N=C/c1cc(Br)ccc1O [Compound 1a, N′-[(E)-(5-bromo-2-hydroxyphenyl)methylidene]-2-(2-methyl-4-oxoquinazolin-3(4H)-yl)acetohydrazide]
[1]; DMF
  Solubility: soluble
[1]; DMSO
  Solubility: soluble
[1]; acetone
  Solubility: soluble
[1]; methanol
  Solubility: slightly soluble
[1]; water
  Solubility: insoluble
P. aeruginosa ATCC 27853
  MICMA: 0.625 mg/mL
[2]
  viability at 50 µM: ~60%
[4]
  Cell viability: below 50%
[4]; Homo sapiens, 50 µM, relative to untreated control, read-out: Cell viability
  viability at 50 µM: ~50%
[4]; Homo sapiens, read-out: IC50
  IC50: ~50 µM

## COc1cc(/C=N/NC(=O)Cn2c(C)nc3ccccc3c2=O)cc([N+](=O)[O-])c1O [Compound 1f, N′-[(E)-(4-hydroxy-3-methoxy-5-nitrophenyl)methylidene]-2-(2-methyl-4-oxoquinazolin-3(4H)-yl)acetohydrazide]
[1]; DMF
  Solubility: soluble
[1]; DMSO
  Solubility: soluble
[1]; acetone
  Solubility: soluble
[1]; methanol
  Solubility: slightly soluble
[1]; water
  Solubility: insoluble
P. aeruginosa ATCC 27853
  MICMA: 1.25 mg/mL
[2]
  Cytotoxic effect (in words): did not exert any inhibitory effect
[3]
  Cytotoxic effect on normal cells (in words): well tolerated
[4]
  Cytotoxic effect (in words): no inhibitory effect
